Bounds are passed on as bounds.

Chain of human PDE4D catalytic domain (Q08499 380-740 limits assumed): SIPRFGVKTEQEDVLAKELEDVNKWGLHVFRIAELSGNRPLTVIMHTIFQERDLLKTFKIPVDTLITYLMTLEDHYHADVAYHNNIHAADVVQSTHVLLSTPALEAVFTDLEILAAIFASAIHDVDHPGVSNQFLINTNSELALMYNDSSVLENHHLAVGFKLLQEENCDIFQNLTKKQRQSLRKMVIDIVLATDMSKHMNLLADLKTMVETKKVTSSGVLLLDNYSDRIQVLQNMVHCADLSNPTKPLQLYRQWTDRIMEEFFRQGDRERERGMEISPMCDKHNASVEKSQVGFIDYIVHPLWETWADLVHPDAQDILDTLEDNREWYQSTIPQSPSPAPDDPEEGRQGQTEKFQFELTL

This test has as its target human PDE4D catalytic domain (UniProt no. Q08499) (Homo sapiens (Human), UniProt Q08499). Description: PDE4 assay (TR-FRET, FAM-cAMP cleavage). The class given is biochemical. Particulars: read-out: PDE4 IC50 range. The gist of the method: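 PDE4D catalytic domain ([…]) was incubated with unlabelled cAMP plus FAM-cAMP and titrated compound, stopped with binding buffer of metal-ion nanoparticles and Tb donor. AMP generation read by TR-FRET; IC50 as 50% inhibition of cleavage versus controls, reported as nM ranges.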
A general note: Time-resolved FRET reads energy transfer from a long-lived donor to a nearby acceptor.
Regarding `CCc1nn(CC(C)(C)COC(=O)c2ccc(C(F)(F)F)cc2)c2c1C(=O)NCC1(CCOCC1)C2` [Example 304, [3-(3-ethyl-4-oxo-spiro[6,8-dihydro-5H-pyrazolo[4,3-c]azepine-7,4′-tetrahydropyran]-1-yl)-2,2-dimethyl-propyl] 4-(trifluoromethyl)benzoate], the IC50 is below 100 nM.

`CCc1nn(CC(C)(C)COC(=O)c2cccc(S(C)(=O)=O)c2)c2c1C(=O)NCC1(CCOCC1)C2` [Example 305, [3-(3-ethyl-4-oxo-spiro[6,8-dihydro-5H-pyrazolo[4,3-c]azepine-7,4′-tetrahydropyran]-1-yl)-2,2-dimethyl-propyl] 3-methylsulfonylbenzoate]: the IC50 is below 100 nM.

For the compound `CCc1nn(CC(C)(C)COC(=O)c2ccc(S(C)(=O)=O)cc2)c2c1C(=O)NCC1(CCOCC1)C2` [Example 306, [3-(3-ethyl-4-oxo-spiro[6,8-dihydro-5H-pyrazolo[4,3-c]azepine-7,4′-tetrahydropyran]-1-yl)-2,2-dimethyl-propyl] 4-methylsulfonylbenzoate], the IC50 was below 100 nM.

Consider `CCc1nn(CC(C)(C)COC(=O)c2ccccc2S(C)(=O)=O)c2c1C(=O)NCC1(CCOCC1)C2` [Example 307, [3-(3-ethyl-4-oxo-spiro[6,8-dihydro-5H-pyrazolo[4,3-c]azepine-7,4′-tetrahydropyran]-1-yl)-2,2-dimethyl-propyl] 2-methylsulfonylbenzoate], for which the IC50 is below 100 nM.

For the compound `CCc1nn(CC(C)(C)COC(=O)c2cccc(S(N)(=O)=O)c2)c2c1C(=O)NCC1(CCOCC1)C2` [Example 308, [3-(3-ethyl-4-oxo-spiro[6,8-dihydro-5H-pyrazolo[4,3-c]azepine-7,4′-tetrahydropyran]-1-yl)-2,2-dimethyl-propyl] 3-sulfamoylbenzoate], the IC50 was below 100 nM.

With `CCc1nn(CC(C)(C)COC(=O)c2ccc(S(N)(=O)=O)cc2)c2c1C(=O)NCC1(CCOCC1)C2` [Example 309, [3-(3-ethyl-4-oxo-spiro[6,8-dihydro-5H-pyrazolo[4,3-c]azepine-7,4′-tetrahydropyran]-1-yl)-2,2-dimethyl-propyl] 4-sulfamoylbenzoate], the IC50 is below 100 nM.

Turning to `CCc1nn(CC(C)(C)COC(=O)c2cc(F)cc(C(F)(F)F)c2)c2c1C(=O)NCC1(CCOCC1)C2` [Example 310, [3-(3-ethyl-4-oxo-spiro[6,8-dihydro-5H-pyrazolo[4,3-c]azepine-7,4′-tetrahydropyran]-1-yl)-2,2-dimethyl-propyl] 3-fluoro-5-(trifluoromethyl)benzoate], the IC50 was below 100 nM.

In the case of `CCc1nn(CC(C)(C)COC(=O)c2cccc(S(=O)(=O)CC)c2)c2c1C(=O)NCC1(CCOCC1)C2` [Example 311, [3-(3-ethyl-4-oxo-spiro[6,8-dihydro-5H-pyrazolo[4,3-c]azepine-7,4′-tetrahydropyran]-1-yl)-2,2-dimethyl-propyl] 3-ethylsulfonylbenzoate], the IC50 was below 100 nM.

For the compound `CCc1nn(CC(C)(C)COC(=O)c2ccc(S(=O)(=O)CC)cc2)c2c1C(=O)NCC1(CCOCC1)C2` [Example 312, [3-(3-ethyl-4-oxo-spiro[6,8-dihydro-5H-pyrazolo[4,3-c]azepine-7,4′-tetrahydropyran]-1-yl)-2,2-dimethyl-propyl] 4-ethylsulfonylbenzoate], the IC50 was below 100 nM.

In the case of `CCc1nn(CC(C)(C)COC(=O)c2cccc(S(=O)(=O)NC)c2)c2c1C(=O)NCC1(CCOCC1)C2` [Example 313, [3-(3-ethyl-4-oxo-spiro[6,8-dihydro-5H-pyrazolo[4,3-c]azepine-7,4′-tetrahydropyran]-1-yl)-2,2-dimethyl-propyl] 3-(methylsulfamoyl)benzoate], the IC50 is below 100 nM.

Consider `CCc1nn(CC(C)(C)COC(=O)c2ccc(Cl)c(C(F)(F)F)c2)c2c1C(=O)NCC1(CCOCC1)C2` [Example 314, [3-(3-ethyl-4-oxo-spiro[6,8-dihydro-5H-pyrazolo[4,3-c]azepine-7,4′-tetrahydropyran]-1-yl)-2,2-dimethyl-propyl] 4-chloro-3-(trifluoromethyl)benzoate], for which the IC50 was below 100 nM.

With `CCc1nn(CC(C)(C)COC(=O)c2cc(C(F)(F)F)ccc2Cl)c2c1C(=O)NCC1(CCOCC1)C2` [Example 315, [3-(3-ethyl-4-oxo-spiro[6,8-dihydro-5H-pyrazolo[4,3-c]azepine-7,4′-tetrahydropyran]-1-yl)-2,2-dimethyl-propyl] 2-chloro-5-(trifluoromethyl)benzoate], the IC50 was below 100 nM.

Turning to `CCc1nn(CC(C)(C)COC(=O)c2cccc(S(=O)(=O)C(C)C)c2)c2c1C(=O)NCC1(CCOCC1)C2` [Example 316, [3-(3-ethyl-4-oxo-spiro[6,8-dihydro-5H-pyrazolo[4,3-c]azepine-7,4′-tetrahydropyran]-1-yl)-2,2-dimethyl-propyl] 3-isopropylsulfonylbenzoate], the IC50 was below 100 nM.

For `CCc1nn(CC(C)(C)COC(=O)c2ccc(S(=O)(=O)C(C)C)cc2)c2c1C(=O)NCC1(CCOCC1)C2` [Example 317, [3-(3-ethyl-4-oxo-spiro[6,8-dihydro-5H-pyrazolo[4,3-c]azepine-7,4′-tetrahydropyran]-1-yl)-2,2-dimethyl-propyl] 4-isopropylsulfonylbenzoate], the 50% inhibitory concentration (IC50) is below 100 nM.

`CCc1nn(CC(C)(C)COC(=O)c2ccc(S(=O)(=O)N(C)C)cc2)c2c1C(=O)NCC1(CCOCC1)C2` [Example 318, [3-(3-ethyl-4-oxo-spiro[6,8-dihydro-5H-pyrazolo[4,3-c]azepine-7,4′-tetrahydropyran]-1-yl)-2,2-dimethyl-propyl] 4-(dimethylsulfamoyl)benzoate]: the IC50 was below 100 nM.

Take `CCc1nn(CC(C)(C)COC(=O)c2ccc(S(=O)(=O)C3CCCC3)cc2)c2c1C(=O)NCC1(CCOCC1)C2` [Example 319, [3-(3-ethyl-4-oxo-spiro[6,8-dihydro-5H-pyrazolo[4,3-c]azepine-7,4′-tetrahydropyran]-1-yl)-2,2-dimethyl-propyl] 4-cyclopentylsulfonylbenzoate]: the IC50 was below 100 nM.

As to `CCc1nn(CC(C)(C)COC(=O)c2cccc(S(=O)(=O)N3CCCC3)c2)c2c1C(=O)NCC1(CCOCC1)C2` [Example 320, [3-(3-ethyl-4-oxo-spiro[6,8-dihydro-5H-pyrazolo[4,3-c]azepine-7,4′-tetrahydropyran]-1-yl)-2,2-dimethyl-propyl] 3-pyrrolidin-1-ylsulfonylbenzoate], the IC50 is below 100 nM.

As to `CCc1nn(CC(C)(C)COC(=O)c2ccc(S(=O)(=O)N3CCCC3)cc2)c2c1C(=O)NCC1(CCOCC1)C2` [Example 321, [3-(3-ethyl-4-oxo-spiro[6,8-dihydro-5H-pyrazolo[4,3-c]azepine-7,4′-tetrahydropyran]-1-yl)-2,2-dimethyl-propyl] 4-pyrrolidin-1-ylsulfonylbenzoate], the IC50 is below 100 nM.

`CCc1nn(CC(C)(C)COC(=O)c2ccc(S(=O)(=O)N3CCOCC3)cc2)c2c1C(=O)NCC1(CCOCC1)C2` [Example 322, [3-(3-ethyl-4-oxo-spiro[6,8-dihydro-5H-pyrazolo[4,3-c]azepine-7,4′-tetrahydropyran]-1-yl)-2,2-dimethyl-propyl] 4-morpholinosulfonylbenzoate]: the IC50 is below 100 nM.

As for `CCc1nn(CC(C)(C)COC(=O)c2cccc(S(=O)(=O)N3CCOCC3)c2)c2c1C(=O)NCC1(CCOCC1)C2` [Example 323, [3-(3-ethyl-4-oxo-spiro[6,8-dihydro-5H-pyrazolo[4,3-c]azepine-7,4′-tetrahydropyran]-1-yl)-2,2-dimethyl-propyl] 3-morpholinosulfonylbenzoate], the half-inhibitory concentration (IC50) is below 100 nM.

With `CCc1nn(CC(C)(C)COC(=O)c2ccc(S(=O)(=O)N3CCN(C(C)=O)CC3)cc2)c2c1C(=O)NCC1(CCOCC1)C2` [Example 324, [3-(3-ethyl-4-oxo-spiro[6,8-dihydro-5H-pyrazolo[4,3-c]azepine-7,4′-tetrahydropyran]-1-yl)-2,2-dimethyl-propyl] 4-(4-acetylpiperazin-1-yl)sulfonylbenzoate], the half-inhibitory concentration (IC50) is below 100 nM.

Turning to `CCc1nn(CC(C)(C)COC(=O)c2cccc(S(=O)(=O)N3CCN(C(C)=O)CC3)c2)c2c1C(=O)NCC1(CCOCC1)C2` [Example 325, [3-(3-ethyl-4-oxo-spiro[6,8-dihydro-5H-pyrazolo[4,3-c]azepine-7,4′-tetrahydropyran]-1-yl)-2,2-dimethyl-propyl] 3-(4-acetylpiperazin-1-yl)sulfonylbenzoate], the IC50 is below 100 nM.

Consider `CCc1nn(CC(C)(C)COC(=O)c2ccc(C(N)=O)cc2)c2c1C(=O)NCC1(CCOCC1)C2` [Example 328, [3-(3-ethyl-4-oxo-spiro[6,8-dihydro-5H-pyrazolo[4,3-c]azepine-7,4′-tetrahydropyran]-1-yl)-2,2-dimethyl-propyl] 4-carbamoylbenzoate], for which the IC50 was below 100 nM.

As for `CCc1nn(CC(C)(C)COC(=O)c2ccc(C(=O)NC)cc2)c2c1C(=O)NCC1(CCOCC1)C2` [Example 329, [3-(3-ethyl-4-oxo-spiro[6,8-dihydro-5H-pyrazolo[4,3-c]azepine-7,4′-tetrahydropyran]-1-yl)-2,2-dimethyl-propyl] 4-(methylcarbamoyl)benzoate], the IC50 is below 100 nM.

As for `CCNC(=O)c1ccc(C(=O)OCC(C)(C)Cn2nc(CC)c3c2CC2(CCOCC2)CNC3=O)cc1` [Example 330, [3-(3-ethyl-4-oxo-Spiro[6,8-dihydro-5H-pyrazolo[4,3-c]azepine-7,4′-tetrahydropyran]-1-yl)-2,2-dimethyl-propyl] 4-(ethylcarbamoyl)benzoate], the IC50 was below 100 nM.

As to `CCc1nn(CC(C)(C)COC(=O)c2ccc(C(=O)N(C)C)cc2)c2c1C(=O)NCC1(CCOCC1)C2` [Example 331, [3-(3-ethyl-4-oxo-spiro[6,8-dihydro-5H-pyrazolo[4,3-c]azepine-7,4′-tetrahydropyran]-1-yl)-2,2-dimethyl-propyl] 4-(dimethylcarbamoyl)benzoate], the IC50 is below 100 nM.

The IC50 is the concentration needed to halve the response being measured.

For the origin of these results see patent US10906915B2, “Substituted pyrazoloazepin-4-ones and their use as phosphodiesterase inhibitors” (LEO Pharma A/S, priority 2016, dated 2021).
